Patent publication US9809574B2, “Isoindoline or isoquinoline compounds, a process for their preparation and pharmaceutical compositions containing them” (LES LABORATOIRES SERVIER, priority 2013, dated 2017)
Counter-ions that a name gives are not always drawn.

Columns and labels:
[1] = target: Bcl-2 protein (histag-Bcl-2, UniProtKB P10415) (Homo sapiens (Human), UniProt P10415); test: Inhibition of Bcl-2 by the fluorescence polarisation technique; format: binding; settings: fluorescence polarisation test; incubation for 2 hours; read-out: IC50 (nM) Bcl-2 FP
Chain of Bcl-2 protein (P10415 whole entry): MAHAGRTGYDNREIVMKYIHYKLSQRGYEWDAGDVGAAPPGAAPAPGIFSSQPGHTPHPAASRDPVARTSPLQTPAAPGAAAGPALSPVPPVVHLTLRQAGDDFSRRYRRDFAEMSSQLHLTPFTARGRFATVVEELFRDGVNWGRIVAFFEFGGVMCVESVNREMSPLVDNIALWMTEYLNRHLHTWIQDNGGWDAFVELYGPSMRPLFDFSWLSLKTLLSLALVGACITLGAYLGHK
Excerpt: For partial inhibitors, the percentage fluorescence polarisation inhibition for a given concentration of the test compound is indicated.

[2] = tested on: RS4; 11 leukaemia cell line; test: In vitro cytotoxicity, Microculture Tetrazolium Assay (MTT); format: cell-based; settings: 11 cells exposed for 48 hours
Description: The cytotoxicity studies were carried out on the RS4; 11 leukaemia cell line and on H146 small Cell Lung Carcinoma cell line. The cells are distributed onto microplates and exposed to the test compounds for 48 hours. The cell viability is then quantified by a colorimetric assay, the Microculture Tetrazolium Assay (Cancer Res., 1987, 47, 939-942).

| SMILES | IC50 [1] [nM] | IC50 ([2]; Homo sapiens) [nM] | IC50 [2] [nM] |
| --- | --- | --- | --- |
| Cc1c(C(=O)N(C)c2ccc(O)cc2)cc(-c2cc3c(cc2C(=O)N2Cc4ccccc4C[C@H]2C)CN(C(=O)CN2CCCCC2)CC3)n1C [Example 799, N-(4-Hydroxyphenyl)-N,1,2-trimethyl-5-{7-[(3R)-3-methyl-1,2,3,4-tetrahydroisoquinoline-2-carbonyl]-2-[2-(piperidin-1-yl)acetyl]-1,2,3,4-tetrahydroisoquinolin-6-yl}-1H-pyrrole-3-carboxamide] | 15 | > 150 | – |
| Cc1c(C(=O)N(C)c2ccc(O)cc2)cc(-c2cc3c(cc2C(=O)N2Cc4ccccc4C[C@H]2C)CN(C(=O)Cc2ccc(F)cc2)C3)n1C [Example 102, 5-{2-[2-(4-Fluorophenyl)acetyl]-6-[(3R)-3-methyl-1,2,3,4-tetrahydroisoquinoline-2-carbonyl]-2,3-dihydro-1H-isoindol-5-yl}-N-(4-hydroxyphenyl)-N,1,2-trimethyl-1H-pyrrole-3-carboxamide] | 5 | 75 | – |
| Cc1c(C(=O)N(C)c2ccc(O)cc2)cc(-c2cc3c(cc2C(=O)N2Cc4ccccc4C[C@H]2C)CN(C(=O)OC2CCS(=O)(=O)C2)C3)n1C (stereo partly drawn) [Example 157, 1,1-Dioxo-1λ^6-thiolan-3-yl 5-{4-[(4-hydroxyphenyl)(methyl)carbamoyl]-1,5-dimethyl-1H-pyrrol-2-yl}-6-[(3R)-3-methyl-1,2,3,4-tetrahydroisoquinoline-2-carbonyl]-2,3-dihydro-1H-isoindole-2-carboxylate] | 21 | > 600 | – |
| CN(C(=O)c1cc(-c2cc3c(cc2C(=O)N2Cc4ccccc4C[C@H]2CN2CCOCC2)CN(C(=O)c2ccccc2)C3)n2c1CCCC2)c1ccc(O)cc1 [Example 12, 3-{2-Benzoyl-6-[(3S)-3-(morpholin-4-ylmethyl)-1,2,3,4-tetrahydroisoquinoline-2-carbonyl]-2,3-dihydro-1H-isoindol-5-yl}-N-(4-hydroxyphenyl)-N-methyl-5,6,7,8-tetrahydroindolizine-1-carboxamide hydrochloride] | 43 | 759 | – |
| CCS(=O)(=O)N1Cc2cc(C(=O)N3Cc4ccccc4C[C@H]3CN3CCOCC3)c(-c3cc(C(=O)N(C)c4ccc(O)cc4)c4n3CCCC4)cc2C1 [Example 18, 3-[2-(Ethanesulfonyl)-6-[(3S)-3-(morpholin-4-ylmethyl)-1,2,3,4-tetrahydroisoquinoline-2-carbonyl]-2,3-dihydro-1H-isoindol-5-yl]-N-(4-hydroxyphenyl)-N-methyl-5,6,7,8-tetrahydroindolizine-1-carboxamide hydrochloride] | 38 | 1290 | – |
| C[C@@H]1Cc2ccccc2CN1C(=O)c1cc2c(cc1-c1cc(C(=O)N(C)c3ccc(O)cc3)c3n1CCCC3)CN(CCc1ccccc1)C2 [Example 72, N-(4-Hydroxyphenyl)-N-methyl-3-{6-[(3R)-3-methyl-1,2,3,4-tetrahydroisoquinoline-2-carbonyl]-2-(2-phenylethyl)-2,3-dihydro-1H-isoindol-5-yl}-5,6,7,8-tetrahydroindolizine-1-carboxamide] | 21 | 229 | – |
| Cc1ccc(OC(=O)N2CCc3cc(-c4cc(C(=O)N(c5ccc(O)cc5)c5cc(C#N)n(C)c5C)c(C)n4C)c(C(=O)N4Cc5ccccc5C[C@H]4CN4CCOCC4)cc3C2)cc1 [Example 805, Tolyl 6-[4-[(5-cyano-1,2-dimethyl-1H-pyrrol-3-yl)-(4-hydroxyphenyl)carbamoyl]-1,5-dimethyl-1H-pyrrol-2-yl]-7-[(3S)-3-(morpholinomethyl)-3,4-dihydro-1H-isoquinoline-2-carbonyl]-3,4-dihydro-1H-isoquinoline-2-carboxylate hydrochloride] | 3.1 | – | 0.12 |
| COc1ccc(OC(=O)N2CCc3cc(-c4cc(C(=O)N(C)c5ccc(O)cc5)c5n4CCCC5)c(C(=O)N4Cc5ccccc5C[C@H]4CN4CCOCC4)cc3C2)cc1 [Example 121, 4-Methoxyphenyl 6-{1-[(4-hydroxyphenyl)(methyl)carbamoyl]-5,6,7,8-tetrahydroindolizin-3-yl}-7-[(3S)-3-(morpholin-4-ylmethyl)-1,2,3,4-tetrahydroisoquinoline-2-carbonyl]-1,2,3,4-tetrahydroisoquinoline-2-carboxylate] | 2.9 | 2.8 | – |
| Cc1ccc(OC(=O)N2CCc3cc(-c4cc(C(=O)N(C)c5ccccc5)c(C)n4C)c(C(=O)N4Cc5ccccc5C[C@H]4C)cc3C2)cc1 [Example 785, 4-Methylphenyl 6-{1,5-dimethyl-4-[methyl(phenyl)carbamoyl]-1H-pyrrol-2-yl}-7-[(3R)-3-methyl-1,2,3,4-tetrahydroisoquinoline-2-carbonyl]-1,2,3,4-tetrahydroisoquinoline-2-carboxylate] | 3.3 | 7.8 | – |
| CC(=O)Nc1ccc(OC(=O)N2CCc3cc(-c4cc(C(=O)N(C)c5ccc(O)cc5)c5n4CCCC5)c(C(=O)N4Cc5ccccc5C[C@H]4C)cc3C2)cc1 [Example 59, 4-Acetamidophenyl 6-{1-[(4-hydroxyphenyl)(methyl)carbamoyl]-5,6,7,8-tetrahydroindolizin-3-yl}-7-[(3R)-3-methyl-1,2,3,4-tetrahydroisoquinoline-2-carbonyl]-1,2,3,4-tetrahydroisoquinoline-2-carboxylate] | 3.2 | 6.8 | – |
| Cc1c(C(=O)N(C)c2ccc(O)cc2)cc(-c2cc3c(cc2C(=O)N2Cc4ccccc4C[C@H]2C)CN(C(=O)Oc2ccccc2)CC3)n1C [Example 68, Phenyl 6-{4-[(4-hydroxyphenyl)(methyl)carbamoyl]-1,5-dimethyl-1H-pyrrol-2-yl}-7-[(3R)-3-methyl-1,2,3,4-tetrahydroisoquinoline-2-carbonyl]-1,2,3,4-tetrahydroisoquinoline-2-carboxylate] | 2.9 | 1.8 | – |
| Cc1c(C(=O)N(C)c2ccc(O)cc2)cc(-c2cc3c(cc2C(=O)N2Cc4ccccc4C[C@H]2C)CN(C(=O)[C@@H](O)c2ccccc2)C3)n1C [Example 806, N-(4-Hydroxyphenyl)-5-(2-[(2S)-2-hydroxy-2-phenylacetyl]-6-{[(3R)-3-methyl-3,4-dihydroisoquinolin-2(1H)-yl]carbonyl}-2,3-dihydro-1H-isoindol-5-yl)-N,1,2-trimethyl-1H-pyrrole-3-carboxamide] | 33 | > 150 | – |
| Cc1c(C(=O)N(C)c2ccc(O)cc2)cc(-c2cc3c(cc2C(=O)N2Cc4ccccc4C[C@H]2C)CN(C(=O)Oc2ccc(F)cc2)C3)n1C [Example 106, 4-Fluorophenyl 5-{4-[(4-hydroxyphenyl)(methyl)carbamoyl]-1,5-dimethyl-1H-pyrrol-2-yl}-6-[(3R)-3-methyl-1,2,3,4-tetrahydroisoquinoline-2-carbonyl]-2,3-dihydro-1H-isoindole-2-carboxylate] | 5.3 | 38 | – |
| CN(C(=O)c1cc(-c2cc3c(cc2C(=O)N2Cc4ccccc4C[C@H]2CN2CCOCC2)CN(C(=O)Oc2ccc(F)cc2)CC3)n2c1CCCC2)c1ccc(O)cc1 [Example 120, 4-Fluorophenyl 6-{1-[(4-hydroxyphenyl)(methyl)carbamoyl]-5,6,7,8-tetrahydroindolizin-3-yl}-7-[(3S)-3-(morpholin-4-ylmethyl)-1,2,3,4-tetrahydroisoquinoline-2-carbonyl]-1,2,3,4-tetrahydroisoquinoline-2-carboxylate] | 2.5 | 8.2 | – |
| CNC(=O)N1Cc2cc(C(=O)N3Cc4ccccc4C[C@H]3C)c(-c3cc(C(=O)N(C)c4ccc(O)cc4)c4n3CCCC4)cc2C1 [Example 55, 5-{1-[(4-Hydroxyphenyl)(methyl)carbamoyl]-5,6,7,8-tetrahydroindolizin-3-yl}-N-methyl-6-[(3R)-3-methyl-1,2,3,4-tetrahydroisoquinoline-2-carbonyl]-2,3-dihydro-1H-isoindole-2-carboxamide] | 16 | 372 | – |
| C[C@@H]1Cc2ccccc2CN1C(=O)c1cc2c(cc1-c1cc(C(=O)N(C)c3ccc(O)cc3)c3n1CCCC3)CNC2 [Example 10, N-(4-Hydroxyphenyl)-N-methyl-3-{6-[(3R)-3-methyl-1,2,3,4-tetrahydroisoquinoline-2-carbonyl]-2,3-dihydro-1H-isoindol-5-yl}-5,6,7,8-tetrahydroindolizine-1-carboxamide] | 127 | – | – |
| C[C@@H]1Cc2ccccc2CN1C(=O)c1cc2c(cc1-c1cc(C(=O)N(C)c3ccc(O)cc3)c3n1CCCC3)CCNC2 [Example 27, N-(4-Hydroxyphenyl)-N-methyl-3-{7-[(3R)-3-methyl-1,2,3,4-tetrahydroisoquinoline-2-carbonyl]-1,2,3,4-tetrahydroisoquinolin-6-yl}-5,6,7,8-tetrahydroindolizine-1-carboxamide; trifluoroacetic acid salt] | 83 | – | – |
| Cc1c(C(=O)N(C)c2ccc(O)cc2)cc(-c2cc3c(cc2C(=O)N2Cc4ccccc4C[C@H]2C)CN(C(=O)CN2CCCCC2)C3)n1C [Example 176, 5-{2-[2-(1-Piperidyl)acetyl]-6-[(3R)-3-methyl-1,2,3,4-tetrahydroisoquinoline-2-carbonyl]-2,3-dihydro-1H-isoindol-5-yl}-N-(4-hydroxyphenyl)-N,1,2-trimethyl-1H-pyrrole-3-carboxamide] | 78 | – | – |
| Cc1c(C(=O)N(C)c2ccc(O)cc2)cc(-c2cc3c(cc2C(=O)N2Cc4ccccc4C[C@H]2C)CN(C(=O)Oc2ccc(OCCN(C)C)cc2)CC3)n1C [Example 476, 4-[2-(Dimethylamino)ethoxy]phenyl 6-{4-[(4-hydroxyphenyl)(methyl)carbamoyl]-1,5-dimethyl-1H-pyrrol-2-yl}-7-[(3R)-3-methyl-1,2,3,4-tetrahydroisoquinoline-2-carbonyl]-1,2,3,4-tetrahydroisoquinoline-2-carboxylate] | 1.8 | – | – |
